Assay results taken from the supplement of paper PMC13207355.
Structures can show the parent of a compound that is named as a salt.

Legend:
Conditions in all cases: exposure time: 72 h
[1] = tested on: E13 (patient-derived glioblastoma stem cells of classical subtype); test: phenotypic distance (Euclidean, principal components) from DMSO controls (arbitrary units); higher = stronger morphological change
[2] = tested on: E28 (patient-derived glioblastoma stem cells of classical subtype); test: as above
[3] = tested on: FT3469 (normal neural stem cell line); test: as above
[4] = tested on: E57 (patient-derived glioblastoma stem cells of mesenchymal subtype); test: as above
[5] = tested on: E31 (patient-derived glioblastoma stem cells of proneural subtype); test: as above
[6] = tested on: E21 (patient-derived glioblastoma stem cells of mesenchymal subtype); test: as above
[7] = tested on: E34 (patient-derived glioblastoma stem cells of proneural subtype); test: as above
[8] = tested on: E13; test: surviving fraction (nuclei count normalised to DMSO); higher = more cells surviving (less toxic)
[9] = tested on: E28; test: as above
[10] = tested on: FT3469; test: as above
[11] = tested on: E57; test: as above
[12] = tested on: E31; test: as above
[13] = tested on: E21; test: as above
[14] = tested on: E34; test: as above
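Throughout, for phenotypic distance (Euclidean, principal components) from DMSO controls: cell Painting imaging in 384-well plates, CellProfiler features reduced to at least 20 principal components, Euclidean distance versus same-plate DMSO vehicle wells (0.1% v/v), median over six images per well.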
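Throughout, for surviving fraction (nuclei count normalised to DMSO): nuclei counted by high-content imaging of Hoechst-stained cells in laminin-coated 384-well plates, relative to 0.1% DMSO vehicle wells, with staurosporine as cell-death control.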

O=c1[nH]c(=O)n([C@H]2C[C@H](O)[C@@H](CO)O2)cc1I [Idoxuridine]
Conditions	phenotypic distance	surviving fraction
[1], 4.1 nM	1.19	–
[1], 12.3 nM	1.08	–
[1], 37 nM	1.53	–
[1], 111.1 nM	0.919	–
[1], 333.3 nM	0.742	–
[1], 1000 nM	1.06	–
[1], 3000 nM	0.576	–
[2], 4.1 nM	0.822	–
[2], 12.3 nM	0.591	–
[2], 37 nM	0.96	–
[2], 111.1 nM	0.701	–
[2], 333.3 nM	0.922	–
[2], 1000 nM	0.762	–
[2], 3000 nM	1.1	–
[3], 4.1 nM	0.962	–
[3], 12.3 nM	1.15	–
[3], 37 nM	0.953	–
[3], 111.1 nM	0.541	–
[3], 333.3 nM	1.76	–
[3], 1000 nM	0.62	–
[3], 3000 nM	0.72	–
[4], 4.1 nM	0.916	–
[4], 12.3 nM	0.612	–
[4], 37 nM	0.986	–
[4], 111.1 nM	1.62	–
[4], 333.3 nM	0.906	–
[4], 1000 nM	1.14	–
[4], 3000 nM	1.5	–
[5], 4.1 nM	1.23	–
[5], 12.3 nM	0.821	–
[5], 37 nM	0.938	–
[5], 111.1 nM	0.814	–
[5], 333.3 nM	0.763	–
[5], 1000 nM	0.973	–
[5], 3000 nM	0.756	–
[6], 4.1 nM	0.811	–
[6], 12.3 nM	1.68	–
[6], 37 nM	1.77	–
[6], 111.1 nM	0.694	–
[6], 333.3 nM	1.11	–
[6], 1000 nM	1.12	–
[6], 3000 nM	1.56	–
[7], 4.1 nM	0.63	–
[7], 12.3 nM	0.803	–
[7], 37 nM	0.845	–
[7], 111.1 nM	0.69	–
[7], 333.3 nM	0.689	–
[7], 1000 nM	0.829	–
[7], 3000 nM	1.45	–
[8], 4.1 nM	–	0.99
[8], 12.3 nM	–	0.847
[8], 37 nM	–	0.893
[8], 111.1 nM	–	0.967
[8], 333.3 nM	–	0.953
[8], 1000 nM	–	1.02
[8], 3000 nM	–	1.06
[9], 4.1 nM	–	1.11
[9], 12.3 nM	–	0.859
[9], 37 nM	–	1.06
[9], 111.1 nM	–	1.12
[9], 333.3 nM	–	0.97
[9], 1000 nM	–	0.76
[9], 3000 nM	–	0.954
[10], 4.1 nM	–	0.845
[10], 12.3 nM	–	1.33
[10], 37 nM	–	0.987
[10], 111.1 nM	–	0.845
[10], 333.3 nM	–	1.18
[10], 1000 nM	–	0.86
[10], 3000 nM	–	1.07
[11], 4.1 nM	–	1.04
[11], 12.3 nM	–	1.02
[11], 37 nM	–	0.958
[11], 111.1 nM	–	0.992
[11], 333.3 nM	–	1.01
[11], 1000 nM	–	0.99
[11], 3000 nM	–	0.867
[12], 4.1 nM	–	0.736
[12], 12.3 nM	–	1.04
[12], 37 nM	–	0.782
[12], 111.1 nM	–	1.15
[12], 333.3 nM	–	0.725
[12], 1000 nM	–	0.982
[12], 3000 nM	–	0.787
[13], 4.1 nM	–	0.958
[13], 12.3 nM	–	0.967
[13], 37 nM	–	1
[13], 111.1 nM	–	0.893
[13], 333.3 nM	–	1.01
[13], 1000 nM	–	0.969
[13], 3000 nM	–	0.986
[14], 4.1 nM	–	0.86
[14], 12.3 nM	–	1
[14], 37 nM	–	1.04
[14], 111.1 nM	–	0.92
[14], 333.3 nM	–	1.03
[14], 1000 nM	–	0.959
[14], 3000 nM	–	1.01

N=C(N)NCc1cccc(I)c1 [Iobenguane sulfate]
Conditions	phenotypic distance	surviving fraction
[1], 4.1 nM	0.573	–
[1], 12.3 nM	0.965	–
[1], 37 nM	0.696	–
[1], 111.1 nM	0.835	–
[1], 333.3 nM	0.643	–
[1], 1000 nM	0.541	–
[1], 3000 nM	0.796	–
[2], 4.1 nM	0.591	–
[2], 12.3 nM	0.866	–
[2], 37 nM	0.64	–
[2], 111.1 nM	0.721	–
[2], 333.3 nM	0.496	–
[2], 1000 nM	0.786	–
[2], 3000 nM	0.814	–
[3], 4.1 nM	0.354	–
[3], 12.3 nM	3.38	–
[3], 37 nM	0.885	–
[3], 111.1 nM	1.06	–
[3], 333.3 nM	1.08	–
[3], 1000 nM	0.871	–
[3], 3000 nM	0.634	–
[4], 4.1 nM	0.755	–
[4], 12.3 nM	0.843	–
[4], 37 nM	0.712	–
[4], 111.1 nM	0.905	–
[4], 333.3 nM	0.728	–
[4], 1000 nM	0.452	–
[4], 3000 nM	0.547	–
[5], 4.1 nM	0.547	–
[5], 12.3 nM	0.684	–
[5], 37 nM	0.567	–
[5], 111.1 nM	0.714	–
[5], 333.3 nM	0.802	–
[5], 1000 nM	0.469	–
[5], 3000 nM	0.734	–
[6], 4.1 nM	0.441	–
[6], 12.3 nM	0.695	–
[6], 37 nM	1.24	–
[6], 111.1 nM	0.881	–
[6], 333.3 nM	0.867	–
[6], 1000 nM	0.81	–
[6], 3000 nM	0.765	–
[7], 4.1 nM	0.386	–
[7], 12.3 nM	0.879	–
[7], 37 nM	0.823	–
[7], 111.1 nM	0.771	–
[7], 333.3 nM	1.44	–
[7], 1000 nM	0.934	–
[7], 3000 nM	0.966	–
[8], 4.1 nM	–	0.873
[8], 12.3 nM	–	0.869
[8], 37 nM	–	0.916
[8], 111.1 nM	–	0.908
[8], 333.3 nM	–	0.989
[8], 1000 nM	–	0.922
[8], 3000 nM	–	1.08
[9], 4.1 nM	–	0.875
[9], 12.3 nM	–	1.03
[9], 37 nM	–	0.94
[9], 111.1 nM	–	1.05
[9], 333.3 nM	–	1.04
[9], 1000 nM	–	1.05
[9], 3000 nM	–	0.936
[10], 4.1 nM	–	1.08
[10], 12.3 nM	–	1.12
[10], 37 nM	–	0.963
[10], 111.1 nM	–	1.09
[10], 333.3 nM	–	1.1
[10], 1000 nM	–	0.904
[10], 3000 nM	–	1.14
[11], 4.1 nM	–	1.03
[11], 12.3 nM	–	0.978
[11], 37 nM	–	0.973
[11], 111.1 nM	–	1.03
[11], 333.3 nM	–	0.992
[11], 1000 nM	–	1.01
[11], 3000 nM	–	1.04
[12], 4.1 nM	–	0.961
[12], 12.3 nM	–	0.997
[12], 37 nM	–	0.864
[12], 111.1 nM	–	1.15
[12], 333.3 nM	–	1.07
[12], 1000 nM	–	1.13
[12], 3000 nM	–	0.964
[13], 4.1 nM	–	0.982
[13], 12.3 nM	–	0.855
[13], 37 nM	–	0.854
[13], 111.1 nM	–	0.921
[13], 333.3 nM	–	0.972
[13], 1000 nM	–	1.05
[13], 3000 nM	–	0.879
[14], 4.1 nM	–	0.935
[14], 12.3 nM	–	1.1
[14], 37 nM	–	1.02
[14], 111.1 nM	–	0.975
[14], 333.3 nM	–	1.08
[14], 1000 nM	–	1.1
[14], 3000 nM	–	1.25
